One series deals with T1, CYP1B1 S127A (Homo sapiens, UniProt Q16678, S127A).
T1 sequence (Q16678 1-543 S127A): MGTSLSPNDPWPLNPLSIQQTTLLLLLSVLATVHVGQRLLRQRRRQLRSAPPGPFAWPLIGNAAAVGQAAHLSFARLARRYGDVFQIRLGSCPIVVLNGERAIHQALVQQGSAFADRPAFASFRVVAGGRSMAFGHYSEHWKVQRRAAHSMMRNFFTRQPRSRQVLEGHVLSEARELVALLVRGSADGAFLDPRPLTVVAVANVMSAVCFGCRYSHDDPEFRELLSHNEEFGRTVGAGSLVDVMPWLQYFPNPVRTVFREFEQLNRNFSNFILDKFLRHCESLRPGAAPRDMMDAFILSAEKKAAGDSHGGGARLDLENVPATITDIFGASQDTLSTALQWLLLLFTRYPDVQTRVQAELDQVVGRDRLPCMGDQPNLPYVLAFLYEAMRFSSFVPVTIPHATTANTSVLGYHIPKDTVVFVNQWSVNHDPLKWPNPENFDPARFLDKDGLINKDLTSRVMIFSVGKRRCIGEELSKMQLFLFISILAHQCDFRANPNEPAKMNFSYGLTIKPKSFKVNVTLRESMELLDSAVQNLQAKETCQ
Kind of series: In cell CYP1B1 activity assay, S127A variant. To be noted: for logSI S127A: log of the ratio of IC50 values mutant vs WT (Fig. 3c).

The next series deals with HEK293 T-Rex cell line. Description: Cellular viability (resazurin to resorufin, 72 h). It is filed as cell-based, human. The following applies: HEK293 T-Rex, after 72 hrs. As to the method: (§1) The cells were >70% viable at 72 h with 10 μM compound, as quantified by metabolically active cells determined by the conversion of resazurin to resorufin (Supplementary Figs. 18–20).
(§2) The parental HEK T-Rex cell line was maintained as above, in the absence of Zeocin. Compounds were serially diluted in media, and the cells were dosed from 0–30 μM compound, and then incubated at 37 °C (n = 3). […] The cells were incubated with the compound in the dark for 30 min prior to light exposure, using the same parameters as in the enzyme activity assay, and then treated as above.
A general note: The colour change of resazurin is a common sign of viable cells or microbes.

Series [1] is described as follows: Cellular viability (resazurin to resorufin, 72 h). It counts as cell-based, human. The following applies: human, parental HEK293 T-Rex cells, HEK293 T-Rex, after 72 hrs; for viability at 72 h, 1.11 μM: Log Conc 0.045757; for viability at 72 h, 3.33 μM: Log Conc 0.522879; for viability at 72 h, 30 μM: Log Conc 1.47712; for viability at 72 h, 0.37 μM: Log Conc -0.43136; for viability at 72 h, 0.123 μM: Log Conc -0.90849; for viability at 72 h, 0.0412 μM: Log Conc -1.38561; for viability at 72 h, 0.0137 μM: Log Conc -1.86273. As to the method:
as §1, §2

The next series addresses T2, CYP1B1 (Homo sapiens, UniProt Q16678).
T2 sequence (Q16678 1-543): T1 sequence (Q16678 1-543 S127A) with A127S
Kind of series: In cell activity assay for CYP1B1 (7-ethoxyresorufin conversion, HEK293 T-Rex cells). The following applies: for % Enzyme Activity: dark; for IC50: n = 3.

Series [2] is classed as physicochemical. The source says:
Liver Weight Blood Flow Protein
(g/kg Body Weight) (mL/min/kg) (mg/g liver
Supplementary Table 7. Quantum yields of photosubstitution in different solvents.
Compound Φ(PS) 5% DMSO in H2Oa Φ(PS) Opti-MEMa Φ(PS) CH3OH […]
a Quantum yield for photosubstitution, ΦPS, in 5% DMSO in H2O and Opti-MEM, calculated by optical approach
(Fig. S8-10). b ΦPS in 5% DMSO in H2O, determined by HPLC approach. HPLC was used due to overlap in absorbance profiles for 6 and its photochemical product (Fig. S7).
Supplementary Table 8. Lipinski’s rule of five. […]
a log P was calculated by taking the logarithm of the ratio of the MLCT absorbance of each complex (4-6) in octanol to the corresponding absorbance in H2O.
1. Lameijer, L. N. et al. A Red-Light-Activated Ruthenium-Caged NAMPT Inhibitor Remains Phototoxic in Hypoxic Cancer Cells. Angew. Chem. Int. Ed. Engl. 56, 11549-11553,

Changes are numbered by the printed parent chain. Values joined by “and” are separate entries in the source; they are usually repeats but may differ in a detail not shown here. Equal entries are not always repeated. Where two headings read alike, the source gives them in different places.

What is called viability is a read-out of living cells in per cent, often relative to untreated cells. `COc1cc(/C=C/c2ccc(OC)cc2OC)cc(OC)c1` [Compound 1, reference compound]: the “logSI S127A” value on CYP1B1 S127A was -1.5. Besides, the “% Viable” value in the series on HEK293 T-Rex cell line (Log Conc 0.045757) is 81.8963% and 90.1938%; in the series on HEK293 T-Rex cell line (Log Conc 0.522879) it was 71.5944% and 78.1539%; with HEK293 T-Rex cell line (Log Conc 1) it was 79.5836% and 68.5529%; in the series with HEK293 T-Rex cell line (Log Conc 1.47712) it was 62.2316% and 63.1567%; in the series with HEK293 T-Rex cell line (Log Conc -0.43136), 95.7862% and 89.6612%; in the series with HEK293 T-Rex cell line (Log Conc -0.90849), 94.8612% and 92.8008%. The “% Viable” value is 93.2073% and 97.8887% in the series on HEK293 T-Rex cell line (Log Conc -1.38561); 106.593% and 96.3469% in the series with HEK293 T-Rex cell line (Log Conc -1.86273). The viability at 72 h, 1.11 μM in series [1] is 91.2%. Besides, the viability at 72 h, 3.33 μM in series [1] turned out to be 76.6%. Moreover, in series [1], the viability at 72 h, 30 μM stood at 68.4%. Further, in series [1], the viability at 72 h, 0.37 μM amounted to 98.9%. Further, the viability at 72 h, 0.123 μM in series [1] amounted to 98.4%. Also, the viability at 72 h, 0.0412 μM in series [1] turned out to be 97.1%. Further, the viability at 72 h, 0.0137 μM in series [1] is 99.3%.

A word on the IC50: it is the concentration that gives 50% inhibition. As for `COc1ccc(/C=C/c2ccncn2)c(OC)c1` [Compound 2], the “% Enzyme Activity” value at CYP1B1 (CYP1B1, Log Conc 0.39794) is -2.174% and -0.1456% and -1.116%; at CYP1B1 (CYP1B1, Log Conc 1) it was -3.921% and -4.348% and -1.514%; on CYP1B1 (CYP1B1, Log Conc -0.20412), 3.833% and 3.484% and 3.455%; at CYP1B1 (CYP1B1, Log Conc -0.80618), 23.2531% and 22.7484% and 23.8839%; at CYP1B1 (CYP1B1, Log Conc -1.40824), 62.2283% and 59.9476% and 62.7038%; at CYP1B1 (CYP1B1, Log Conc -2.0103) it was 95.9724% and 93.1289% and 92.7213%. Also, the “% Enzyme Activity” value was 93.2065% and 104.319% and 107.88% on CYP1B1 (CYP1B1, Log Conc -2.61236); 101.359% and 108.531% and 103.62% at CYP1B1 (CYP1B1, Log Conc -3.21442); 105.357% and 94.6429% on CYP1B1 (CYP1B1, Log Conc -3.81648). Further, the “p IC50(uM)” value at CYP1B1 (CYP1B1, negative log of the IC50 in μM) is on record as 1.119. The molecule also registered an IC50 at CYP1B1 S127A of 3740 nM. Moreover, the “Ratio IC50 (mutant)/ IC50 (WT), S127A” value at CYP1B1 S127A was 50. The “logSI S127A” value on CYP1B1 S127A is given as 1.7. Besides, the “% Viable” value is 94.5248% and 84.1248% in the series with HEK293 T-Rex cell line (Log Conc 0.045757); 84.1669% and 88.3577% in the series on HEK293 T-Rex cell line (Log Conc 0.522879); 69.8564% and 78.2941% in the series with HEK293 T-Rex cell line (Log Conc 1); 51.1449% and 56.2608% in the series with HEK293 T-Rex cell line (Log Conc 1.47712); 92.2822% and 92.2261% in the series on HEK293 T-Rex cell line (Log Conc -0.43136); 98.0989% and 92.2261% in the series on HEK293 T-Rex cell line (Log Conc -0.90849). Besides, the “% Viable” value was 94.0623% and 98.2391% with HEK293 T-Rex cell line (Log Conc -1.38561); 98.7016% and 97.4401% in the series on HEK293 T-Rex cell line (Log Conc -1.86273). In addition, the viability at 72 h, 1.11 μM in series [1] was found to be 97.3%. Also, in series [1], the viability at 72 h, 3.33 μM came to 79.8%. The viability at 72 h, 10 μM in series [1] (Log Conc 1) came to 64.5%. Besides, the viability at 72 h, 30 μM in series [1] worked out at 51.9%. The viability at 72 h, 0.37 μM in series [1] was found to be 85.2%. The viability at 72 h, 0.123 μM in series [1] amounted to 89.2%. The viability at 72 h, 0.0412 μM in series [1] was found to be 92%. For the same molecule, the viability at 72 h, 0.0137 μM in series [1] is 93.4%.

`COc1ccc(C=Cc2ccncc2)c(OC)c1` [Compound 3]: the “% Enzyme Activity” value is -5.843% and -5.409% and -4.402% on CYP1B1 (CYP1B1, Log Conc 0.39794); -2.892% and -0.02892% and -1.938% on CYP1B1 (CYP1B1, Log Conc 1); -3.135% and -2.441% and -3.396% at CYP1B1 (CYP1B1, Log Conc -0.20412); 0.2661% and -0.4628% and 0.4396% on CYP1B1 (CYP1B1, Log Conc -0.80618); 4.865% and 3.164% and 4.917% on CYP1B1 (CYP1B1, Log Conc -1.40824); 14.3229% and 13.9758% and 14.3403% on CYP1B1 (CYP1B1, Log Conc -2.0103). Moreover, the “% Enzyme Activity” value is 26.2625% and 28.9697% and 28.1888% on CYP1B1 (CYP1B1, Log Conc -2.61236); 46.5321% and 40.302% and 39.9202% on CYP1B1 (CYP1B1, Log Conc -3.21442); 56.0248% and 55.8165% and 54.8794% on CYP1B1 (CYP1B1, Log Conc -3.81648); 73.8474% and 69.3527% and 65.1356% on CYP1B1 (CYP1B1, Log Conc -4.41854); 73.3268% and 74.7498% and 84.3119% at CYP1B1 (CYP1B1, Log Conc -5.0206); 93.7872% and 77.0753% and 77.7868% at CYP1B1 (CYP1B1, Log Conc -5.62266). Further, the “% Enzyme Activity” value is 92.9716% and 93.6311% and 94.2558% on CYP1B1 (CYP1B1, Log Conc -6.22472); 109.545% and 110.274% and 80.1816% on CYP1B1 (CYP1B1, Log Conc -6.82678). Also, the “logSI S127A” value on CYP1B1 S127A is given as 2.2. In addition, the “% Viable” value is 97.2552% and 97.1817% in the series with HEK293 T-Rex cell line (Log Conc 0.045757); 116.518% and 106.568% and 128.158% in the series with HEK293 T-Rex cell line (Log Conc 0.522879); 141.882% and 148.217% and 166.23% in the series on HEK293 T-Rex cell line (Log Conc 1); 142.875% and 157.603% in the series with HEK293 T-Rex cell line (Log Conc 1.47712); 103.982% and 85.443% in the series on HEK293 T-Rex cell line (Log Conc -0.43136); 97.2307% and 93.9713% in the series with HEK293 T-Rex cell line (Log Conc -0.90849). In addition, the “% Viable” value is 97.0469% and 84.1196% with HEK293 T-Rex cell line (Log Conc -1.38561); 98.309% and 101.936% in the series with HEK293 T-Rex cell line (Log Conc -1.86273). Moreover, in series [1], the viability at 72 h, 1.11 μM was 96.6%. For the same molecule, the viability at 72 h, 30 μM in series [1] is 140%. For the same molecule, the viability at 72 h, 0.37 μM in series [1] was found to be 92.3%. Moreover, the viability at 72 h, 0.123 μM in series [1] was 93.3%. The viability at 72 h, 0.0412 μM in series [1] is 90.3%. In addition, the viability at 72 h, 0.0137 μM in series [1] amounted to 103%.

By log P is commonly meant the decadic logarithm of the partition coefficient of the neutral form, usually between octanol and water. Read a low log P as a more hydrophilic compound. As to `COc1ccc(/C=C/c2cc[n+]([Ru-4]345([n+]6ccccc6-c6cccc([n+]63)-c3cccc[n+]34)[n+]3c(cc(C(=O)[O-])c4ccccc43)-c3cc(C(=O)[O-])c4ccccc4[n+]35)cn2)c(OC)c1` [Compound 5], the 50% inhibitory concentration (IC50) at CYP1B1 (read-out: IC50 CYP1B1 Dark, Dark, conversion of 7-ethoxyresorufin (REE)) came out at 1730 nM; at CYP1B1 (read-out: IC50 CYP1B1 Light, Light: 660 nm, 58.7 J/cm^2, REE), 17 nM. In addition, the “log P” value in series [2] was -0.5.

Values taken from publication PMC9233675, “Ru(II) photocages enable precise control over enzyme activity with red light” (Nature Communications, 2022).
